Measured values as given in ChEMBL document CHEMBL1201862, “PubChem BioAssay data set” (2004).
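48-hour exposure; five concentrations; linearly interpolated endpoints. GI50 = concentration required for 50% inhibition of growth.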 The source made the active and inactive calls. Cut-off read from the data, not from the text of the source: active = GI50 up to about 1.1 µM and inactive = higher.

How the values were obtained:
Test in all cases: DTP human tumour cell line panel, 48 h
786-0 = system: 786-0
A498 = system: A498
ACHN = system: ACHN
CAKI-1 = system: CAKI-1
CCRF-CEM = system: CCRF-CEM
DU-145 = system: DU-145
EKVX = system: EKVX
HCC 2998 = system: HCC 2998
HCT-116 = system: HCT-116
HCT-15 = system: HCT-15
HL-60 = system: HL-60
HOP-62 = system: HOP-62
HOP-92 = system: HOP-92
HT-29 = system: HT-29
Hs-578T = system: Hs-578T
IGROV-1 = system: IGROV-1
K562 = system: K562
KM12 = system: KM12
LOX IMVI = system: LOX IMVI
M14 = system: M14
MCF7 = system: MCF7
MDA-MB-231 = system: MDA-MB-231
MDA-MB-435 = system: MDA-MB-435
MDA-N = system: MDA-N
MOLT-4 = system: MOLT-4
NCI-H226 = system: NCI-H226
NCI-H23 = system: NCI-H23
NCI-H460 = system: NCI-H460
NCI-H522 = system: NCI-H522
NCI/ADR-RES = system: NCI/ADR-RES
OVCAR-3 = system: OVCAR-3
OVCAR-4 = system: OVCAR-4
OVCAR-5 = system: OVCAR-5
OVCAR-8 = system: OVCAR-8
PC-3 = system: PC-3
RPMI-8226 = system: RPMI-8226
RXF 393 = system: RXF 393
SF-268 = system: SF-268
SF-295 = system: SF-295
SF-539 = system: SF-539
SK-MEL-28 = system: SK-MEL-28
SK-MEL-2 = system: SK-MEL-2
SK-MEL-5 = system: SK-MEL-5
SK-OV-3 = system: SK-OV-3
SNB-75 = system: SNB-75
SR = system: SR
SW-620 = system: SW-620
T47D = system: T47D
TK-10 = system: TK-10
U-251 = system: U-251
UACC-257 = system: UACC-257
UO-31 = system: UO-31
A549 = system: A549
COLO 205 = system: COLO 205
Malme-3M = system: Malme-3M
SN12C = system: SN12C
SNB-19 = system: SNB-19
UACC-62 = system: UACC-62

[O-][S+](C(c1ccccc1)=P(c1ccccc1)(c1ccccc1)c1ccccc1)c1ccc(Cl)cc1 (stereo not given)
GI50 (786-0): 30.8 µM (inactive)
GI50 (A498): 11.1 µM (inactive)
GI50 (ACHN): 26.4 µM (inactive)
GI50 (CAKI-1): 60.5 µM (inactive)
GI50 (CCRF-CEM): 20.9 µM (inactive)
GI50 (DU-145): 13.9 µM (inactive)
GI50 (EKVX): 27.3 µM (inactive)
GI50 (HCC 2998): 28.4 µM (inactive)
GI50 (HCT-116): 20.7 µM (inactive)
GI50 (HCT-15): 34.9 µM
GI50 (HL-60): 11.5 µM (inactive)
GI50 (HOP-62): 25.6 µM (inactive)
GI50 (HOP-92): 13.1 µM (inactive)
GI50 (HT-29): 21.3 µM (inactive)
GI50 (Hs-578T): 19.8 µM (inactive)
GI50 (IGROV-1): 21.8 µM (inactive)
GI50 (K562): 14.2 µM (inactive)
GI50 (KM12): 14.2 µM (inactive)
GI50 (LOX IMVI): 20.6 µM (inactive)
GI50 (M14): 25.5 µM (inactive)
GI50 (MCF7): 17.9 µM (inactive)
GI50 (MDA-MB-231): 19.3 µM (inactive)
GI50 (MDA-MB-435): 11.7 µM (inactive)
GI50 (MDA-N): 13.3 µM (inactive)
GI50 (MOLT-4): 29.1 µM (inactive)
GI50 (NCI-H226): 55.7 µM (inactive)
GI50 (NCI-H23): 26.7 µM (inactive)
GI50 (NCI-H460): 24.2 µM (inactive)
GI50 (NCI-H522): 11.8 µM (inactive)
GI50 (NCI/ADR-RES): 66.7 µM (inactive)
GI50 (OVCAR-3): 22.3 µM (inactive)
GI50 (OVCAR-4): 17.1 µM (inactive)
GI50 (OVCAR-5): 41.9 µM (inactive)
GI50 (OVCAR-8): 28.1 µM (inactive)
GI50 (PC-3): 23.2 µM (inactive)
GI50 (RPMI-8226): 6.98 µM (inactive)
GI50 (RXF 393): 21.3 µM (inactive)
GI50 (SF-268): 20.4 µM (inactive)
GI50 (SF-295): 33.7 µM (inactive)
GI50 (SF-539): 60 µM (inactive)
GI50 (SK-MEL-28): 22 µM (inactive)
GI50 (SK-MEL-2): 20.8 µM (inactive)
GI50 (SK-MEL-5): 12.1 µM (inactive)
GI50 (SK-OV-3): 24.4 µM (inactive)
GI50 (SNB-75): 60.4 µM (inactive)
GI50 (SR): 19.5 µM (inactive)
GI50 (SW-620): 23.6 µM (inactive)
GI50 (T47D): 7.83 µM (inactive)
GI50 (TK-10): 31.9 µM (inactive)
GI50 (U-251): 21.2 µM (inactive)
GI50 (UACC-257): 12.5 µM (inactive)
GI50 (UO-31): 46.1 µM (inactive)

COC1C(N(C)C)=C(c2ccccc2)C(=O)N2CCc3ccccc3C12 (stereo not given)
GI50 (786-0): > 100 µM (inactive)
GI50 (A498): > 100 µM (inactive)
GI50 (A549): > 100 µM (inactive)
GI50 (ACHN): > 100 µM (inactive)
GI50 (CAKI-1): > 100 µM (inactive)
GI50 (CCRF-CEM): > 100 µM (inactive)
GI50 (COLO 205): > 100 µM (inactive)
GI50 (DU-145): > 100 µM (inactive)
GI50 (EKVX): > 100 µM (inactive)
GI50 (HCT-116): > 100 µM (inactive)
GI50 (HCT-15): > 100 µM
GI50 (HL-60): > 100 µM (inactive)
GI50 (HOP-62): > 100 µM (inactive)
GI50 (HOP-92): > 100 µM (inactive)
GI50 (HT-29): > 100 µM (inactive)
GI50 (Hs-578T): > 100 µM (inactive)
GI50 (IGROV-1): > 100 µM (inactive)
GI50 (KM12): > 100 µM (inactive)
GI50 (LOX IMVI): > 100 µM (inactive)
GI50 (M14): > 100 µM (inactive)
GI50 (MCF7): > 100 µM (inactive)
GI50 (MDA-MB-231): > 100 µM (inactive)
GI50 (MDA-MB-435): > 100 µM (inactive)
GI50 (MDA-N): > 100 µM (inactive)
GI50 (MOLT-4): 79.1 µM (inactive)
GI50 (Malme-3M): > 100 µM (inactive)
GI50 (NCI-H226): > 100 µM (inactive)
GI50 (NCI-H23): > 100 µM (inactive)
GI50 (NCI-H522): > 100 µM (inactive)
GI50 (NCI/ADR-RES): > 100 µM (inactive)
GI50 (OVCAR-4): > 100 µM (inactive)
GI50 (OVCAR-5): > 100 µM (inactive)
GI50 (OVCAR-8): > 100 µM (inactive)
GI50 (PC-3): > 100 µM (inactive)
GI50 (RXF 393): > 100 µM (inactive)
GI50 (SF-268): > 100 µM (inactive)
GI50 (SF-295): > 100 µM (inactive)
GI50 (SF-539): > 100 µM (inactive)
GI50 (SK-MEL-28): > 100 µM (inactive)
GI50 (SK-MEL-2): > 100 µM (inactive)
GI50 (SK-MEL-5): > 100 µM (inactive)
GI50 (SK-OV-3): > 100 µM (inactive)
GI50 (SN12C): > 100 µM (inactive)
GI50 (SNB-19): > 100 µM (inactive)
GI50 (SNB-75): > 100 µM (inactive)
GI50 (SW-620): > 100 µM (inactive)
GI50 (T47D): > 100 µM (inactive)
GI50 (TK-10): > 100 µM (inactive)
GI50 (U-251): > 100 µM (inactive)
GI50 (UACC-257): > 100 µM (inactive)
GI50 (UACC-62): > 100 µM (inactive)
GI50 (UO-31): > 100 µM (inactive)

CNC(=S)N(C1CCCCC1)C1CCCCC1
GI50 (786-0): > 100 µM (inactive)
GI50 (A549): 56.9 µM (inactive)
GI50 (ACHN): 98.4 µM (inactive)
GI50 (CAKI-1): 70.6 µM (inactive)
GI50 (CCRF-CEM): 33.1 µM (inactive)
GI50 (COLO 205): 66.1 µM (inactive)
GI50 (DU-145): > 100 µM (inactive)
GI50 (EKVX): 34.8 µM (inactive)
GI50 (HCC 2998): > 100 µM (inactive)
GI50 (HCT-116): 54 µM (inactive)
GI50 (HCT-15): > 100 µM
GI50 (HL-60): 27.4 µM (inactive)
GI50 (HOP-62): > 100 µM (inactive)
GI50 (HOP-92): 50.8 µM (inactive)
GI50 (HT-29): 41.1 µM (inactive)
GI50 (Hs-578T): 26.3 µM (inactive)
GI50 (IGROV-1): > 100 µM (inactive)
GI50 (K562): 29.9 µM (inactive)
GI50 (KM12): 55.8 µM (inactive)
GI50 (LOX IMVI): > 100 µM (inactive)
GI50 (M14): > 100 µM (inactive)
GI50 (MCF7): 54.8 µM (inactive)
GI50 (MDA-MB-231): > 100 µM (inactive)
GI50 (MDA-MB-435): > 100 µM (inactive)
GI50 (MDA-N): > 100 µM (inactive)
GI50 (MOLT-4): 37.3 µM (inactive)
GI50 (Malme-3M): 47 µM (inactive)
GI50 (NCI-H226): > 100 µM (inactive)
GI50 (NCI-H23): 82.8 µM (inactive)
GI50 (NCI-H460): 50.9 µM (inactive)
GI50 (NCI/ADR-RES): > 100 µM (inactive)
GI50 (OVCAR-3): > 100 µM (inactive)
GI50 (OVCAR-4): 90.6 µM (inactive)
GI50 (OVCAR-5): > 100 µM (inactive)
GI50 (OVCAR-8): > 100 µM (inactive)
GI50 (PC-3): 35.1 µM (inactive)
GI50 (RPMI-8226): 35.7 µM (inactive)
GI50 (RXF 393): > 100 µM (inactive)
GI50 (SF-268): > 100 µM (inactive)
GI50 (SF-295): 61.2 µM (inactive)
GI50 (SF-539): > 100 µM (inactive)
GI50 (SK-MEL-28): > 100 µM (inactive)
GI50 (SK-MEL-2): 76.9 µM (inactive)
GI50 (SK-MEL-5): 49 µM (inactive)
GI50 (SK-OV-3): > 100 µM (inactive)
GI50 (SN12C): > 100 µM (inactive)
GI50 (SNB-19): > 100 µM (inactive)
GI50 (SNB-75): 65.3 µM (inactive)
GI50 (SR): 42.4 µM (inactive)
GI50 (SW-620): > 100 µM (inactive)
GI50 (T47D): 44 µM (inactive)
GI50 (TK-10): > 100 µM (inactive)
GI50 (U-251): > 100 µM (inactive)
GI50 (UACC-257): 34.1 µM (inactive)
GI50 (UACC-62): > 100 µM (inactive)
GI50 (UO-31): 85.5 µM (inactive)
